Reference: US5206241A, “Labdanes and process for their preparation” (Hoechst Aktiengesellschaft, priority 1990, dated 1993)
Values after ≈ are worked out from the molar mass of the structure shown. Structures can show the parent of a compound that is named as a salt.

What was measured:
[1] = test system: intraocular pressure (IOP) in conscious rabbits; experiment: Measurement of the intraocular pressure in conscious rabbits; format: in vivo, rabbit; conditions: 2% solution, 100 μl into one eye; for IOP-Lowering Effect, % decrease in IOP: Schioetz tonometer, relative to initial value; for IOP-Lowering Effect, Duration: unit of duration not given
Description: For this experiment rabbits of both sexes and weighin 2 to 3 kg are used. The intraocular pressure (IOP) is measured with a Schioetz tonometer after corneal anaesthesia with a 2% novocaine solution. A 2% solution of a compound according to the invention is prepared, using the stoichiometric amount of 0.1N HCl, by dissolving it or its salt directly in water. After the initial value has been determined, 100 μl of the solution of the test compound are […] into one of the eyes, and the vehicle is instilled into the other eye. The IOP is measured at defined time intervals, i.e. 0.5, 1, 2, 3, 4 and 5 hours. The percentage decreases in the IOP is calculated using the initial value.

[2] = test system: Guinea pig atrium; experiment: Positive inotropic activity, electrically stimulated isolated guinea pig atrium; conditions: contractility of isolated atrium, Ringer's solution, 32° C., recorded 7 to 10 minutes; for EC50: Cavia porcellus
Description: Guinea pigs of both sexes and weighing 400 g are sacrificed, and the heart is removed and placed in Ringer's solution at room temperature. Both the left and the right atria are then isolated, fixed in an organ holder and placed in a bath containing Ringer's solution and maintained at a temperature of 32° C. A mixture of 95% O2 and 5% CO2 is bubbled through the organ bath. Electrical stimulation of the atrium is then carried out. A compound according to the invention is dissolved in water to give a solution of known concentration and is added to the bath. The contractility of the atrium is recorded for 7 to 10 minutes via an […] strain gage on a Nihon Kohden 4-channel pen recorder. The activity is expressed on the basis of the resulting data as the EC50.
Data for compounds disclosed in Indian Patent No. 163 242 are also provided for comparison.

Compound	IOP-Lowering Effect, % decrease in IOP [1]	IOP-Lowering Effect, Duration [1]	EC50 [2]	other results
C=C[C@@]1(C)CC(=O)[C@]2(O)[C@@]3(C)[C@@H](O)CCC(C)(C)[C@@H]3[C@H](OC(=O)CN3CCCCC3)[C@H](O)[C@@]2(C)O1 [drawing 41, reference compound]	Not active			
C=C[C@@]1(C)CC(=O)[C@]2(O)[C@@]3(C)[C@@H](O)CCC(C)(C)[C@@H]3[C@H](OC(=O)CCN3CCN(C)CC3)[C@H](OC(=O)COCC)[C@@]2(C)O1	32%	> 360		
C=C[C@@]1(C)CC(=O)[C@]2(O)[C@@]3(C)[C@@H](O)CCC(C)(C)[C@@H]3[C@H](OC(=O)CCN3CCCCC3)[C@H](OC(=O)COc3ccccc3)[C@@]2(C)O1	31%	300		
C=C[C@@]1(C)CC(=O)[C@]2(O)[C@@]3(C)[C@@H](O)CCC(C)(C)[C@@H]3[C@H](OC(=O)CCN(C)C)[C@H](OC(=O)COC)[C@@]2(C)O1 [CO(CH2)2 N(CH3)2.2HCl, COCH2 OCH3, 1α,9α-Dihydroxy-6β-(3-N,N-dimethylamino-propionyloxy)-8,13-epoxy-7β-methoxy-acetoxy-labd-14-en-11-one]			0.024 mg/L	
C=C[C@@]1(C)CC(=O)[C@]2(O)[C@@]3(C)[C@@H](O)CCC(C)(C)[C@@H]3[C@H](OC(=O)CCN3CCOCC3)[C@H](O)[C@@]2(C)O1 [reference compound]				Guinea pig atrium EC50 [2]: Not active
C=C[C@@]1(C)CC(=O)[C@]2(O)[C@@]3(C)[C@@H](O)CCC(C)(C)[C@@H]3[C@H](OC(=O)CN3CCCCC3)[C@H](O)[C@@]2(C)O1 [drawing 36, reference compound]			1.8 mg/L (≈ 3.65 µM)	
C=C[C@@]1(C)CC(=O)[C@]2(O)[C@@]3(C)[C@@H](O)CCC(C)(C)[C@@H]3[C@H](OC(=O)CCN3CCOCC3)[C@H](OC(=O)COCC)[C@@]2(C)O1 [drawing 34]			0.044 mg/L (≈ 0.0739 µM)	
C=C[C@@]1(C)CC(=O)[C@]2(O)[C@@]3(C)[C@@H](O)CCC(C)(C)[C@@H]3[C@H](OC(=O)COC)[C@H](OC(=O)CCN(C)C)[C@@]2(C)O1 [COCH2 OCH3, CO(CH2)2 NMe2.HCl, 1α,9α-Dihydroxy-7β-(3-N,N-dimethylamino-propionyloxy)-8,13-epoxy-6β-methoxyacetoxy-labd-14-en-11-one]			0.77 mg/L	
C=C[C@@]1(C)CC(=O)[C@]2(O)[C@@]3(C)[C@@H](O)CCC(C)(C)[C@@H]3[C@H](OC(=O)CCN3CCOCC3)[C@H](OC(=O)COCC)[C@@]2(C)O1 [drawing 39]	31%	> 360		
